The source of these data is article PMC10035947, “Development of novel anilinoquinazoline-based carboxylic acids as non-classical carbonic anhydrase IX and XII inhibitors” (Journal of Enzyme Inhibition and Medicinal Chemistry, 2023).

Where two headings read alike, the source gives them in different places. Some results are limits rather than exact numbers.

For series [1], the target named is T1, hCA XII (Homo sapiens, UniProt O43570).
T1 construct: made in house
The experiment in a line: stopped flow CO2 hydrase assay. The series is classed as biochemical. The conditions noted are these: for Selectivity ratio I/XII: KI hCA I / KI hCA XII; for Selectivity ratio II/XII: KI hCA II / KI hCA XII; for Ki: mean from 3 assays. The protocol: (§1) Carbonic anhydrase inhibition assay
(§2) The carbonic anhydrase catalyzed CO2 hydration actions for the quinazoline-based […]
(§3) Photophysics stopped-flow, as described previously. The enzymes are recombinant proteins prepared in our lab. Phenol red (at a concentration of 0.2 mM) has been used as indicator, working at the absorbance maximum of 557 nm, with 20 mM Hepes (pH 7.5) as buffer, and 20 mM Na2SO4 (for maintaining constant the ionic strength), following the initial rates of the CA- […]
(§4) 1.7 to 17 mM for the determination of the kinetic parameters and inhibition constants. For each […]
(§5) initial velocity. The uncatalyzed rates were determined in the same manner and subtracted from the total observed rates. Stock solutions of inhibitor (0.1 mM) were prepared in distilled-deionized water and dilutions up to 0.01 nM were done thereafter with the assay buffer. Inhibitor and enzyme solutions were preincubated together for 15 min at room temperature prior to assay, in order to allow for the formation of the E-I complex. The inhibition constants were obtained by non-linear least-squares methods using PRISM 3 and the Cheng-Prusoff equation, and represent the mean from at least three different determinations.

Series [2] concerns the target T2, hCA I (Homo sapiens, UniProt P00915).
T2 construct: made in house
The experiment in a line: stopped flow CO2 hydrase assay. Format: biochemical. The conditions noted are these: mean from 3 assays. On the procedure: as §1, §2, §3, §4, §5

For series [3], the target named is T3, hCA IX (Homo sapiens, UniProt Q16790).
T3 construct: made in house
The experiment in a line: stopped flow CO2 hydrase assay. The series is classed as biochemical. The conditions noted are these: for Selectivity ratio II/IX: KI hCA II / KI hCA IX; for Ki: mean from 3 assays. The protocol:
as §1, §2, §3, §4, §5

Series [4] addresses T4, hCA II (Homo sapiens, UniProt P00918).
T4 construct: made in house
Put plainly: stopped flow CO2 hydrase assay. Particulars: mean from 3 assays. Format: biochemical. On the procedure:
as §1
The carbonic anhydrase catalyzed CO2 hydration actions for the quinazoline-based carboxylic acid derivatives (6a-c, 7a-c and 8a-c) were assayed utilizing an instrument of Applied Photophysics stopped-flow, as described previously. The enzymes are recombinant proteins prepared in our lab. Phenol red (at a concentration of 0.2 mM) has been used as indicator, working at the absorbance maximum of 557 nm, with 20 mM Hepes (pH 7.5) as buffer, and 20 mM Na2SO4 (for maintaining constant the ionic strength), following the initial rates of the CA- […]
as §5, with “1.7 to 17 mM for the determination of the kinetic parameters and inhibition constants. For each inhibitor at least six traces of the initial 5-10% of the reaction have been used for determining the initial” for “initial”

Series [5] has as its target T1, hCA XII. Particulars: cited from earlier work.
The target in series [6] is T3, hCA IX. Particulars: cited from earlier work.

T1 sequence (O43570 25-354): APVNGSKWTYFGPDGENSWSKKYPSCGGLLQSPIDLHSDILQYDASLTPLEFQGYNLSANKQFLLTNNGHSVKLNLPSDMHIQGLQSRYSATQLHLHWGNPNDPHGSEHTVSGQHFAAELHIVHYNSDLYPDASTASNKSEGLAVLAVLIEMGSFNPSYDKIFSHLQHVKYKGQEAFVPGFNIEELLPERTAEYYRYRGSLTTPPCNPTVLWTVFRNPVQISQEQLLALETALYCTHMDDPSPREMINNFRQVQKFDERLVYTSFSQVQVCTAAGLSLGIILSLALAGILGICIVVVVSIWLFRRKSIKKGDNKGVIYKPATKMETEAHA
T2 sequence (P00915 whole entry): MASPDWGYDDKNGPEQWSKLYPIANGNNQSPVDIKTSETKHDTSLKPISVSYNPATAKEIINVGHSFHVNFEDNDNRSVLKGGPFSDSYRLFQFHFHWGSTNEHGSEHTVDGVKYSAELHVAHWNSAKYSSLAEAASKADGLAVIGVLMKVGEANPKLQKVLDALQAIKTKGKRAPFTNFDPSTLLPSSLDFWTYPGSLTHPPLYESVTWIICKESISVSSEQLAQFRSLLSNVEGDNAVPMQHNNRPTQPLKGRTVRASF

For `Cc1cccc(-c2nc(Nc3cccc(C(=O)O)c3)c3ccccc3n2)c1` [7a, 3-((2-(m-Tolyl)quinazolin-4-yl)amino)benzoic acid], in series [1], the “Selectivity ratio I/XII” value is 20.8, the “Selectivity ratio II/XII” value came to 5.42 and the affinity corresponds to a Ki of 4.8 µM. The same compound yielded an inhibitory constant (Ki) in series [2] greater than 100 µM. In addition, in series [3], the “Selectivity ratio II/IX” value came out at 0.89 and the Ki came to 29.3 µM. Further, affinity in series [4] was put at a Ki of 26 µM.
Turning to `COc1ccc(-c2nc(Nc3cccc(C(=O)O)c3)c3ccccc3n2)cc1` [7c, 3-((2–(4-Methoxyphenyl)quinazolin-4-yl)amino)benzoic acid], the melting point fell in the range of 244 to 246 °C. In series [1], the “Selectivity ratio II/XII” value is 178.75 and the inhibition constant (Ki) is 0.48 µM. In addition, the Ki in series [2] was greater than 100 µM. In addition, in series [3], the “Selectivity ratio II/IX” value is reported as 2.72 and affinity was put at a Ki of 31.6 µM. In series [4], this compound came in with a Ki of 85.8 µM.
The compound `COc1ccc(-c2nc(Nc3ccc(C(=O)O)cc3)c3ccccc3n2)cc1` [8c, 4-((2–(4-Methoxyphenyl)quinazolin-4-yl)amino)benzoic acid] displayed a melting point greater than 300 °C. Further, in series [1], the “Selectivity ratio I/XII” value was 265.2, the “Selectivity ratio II/XII” value is 18.40 and the Ki stood at 0.25 µM. This compound came in with a Ki in series [2] of 66.3 µM. Further, the “Selectivity ratio I/IX” value in series [3] (KI hCA I / KI hCA IX) came out at 14.7. In series [3], the “Selectivity ratio II/IX” value came to 1.02 and the Ki came out at 4.5 µM. In series [4], this compound registered a Ki of 4.6 µM.
Turning to `O=C(O)c1ccc(N/C=C/C(=O)c2ccc(F)cc2)cc1` [III], the results for the Ki in series [5] and in series [6] were 1.1 µM and 0.92 µM, respectively.
`Cc1c(NC(=O)Nc2cccc(C(=O)O)c2)oc2ccccc12` [I]: the Ki is 2.3 µM in series [5] and 0.79 µM in series [6].
